Laboratory results reported in patent publication US6358883B1, “Pesticidal and parasiticidal use of 1-aryl-1-(substituted thio, sulfinyl and sulfonyl)-2-nitroethane compounds” (American Cyanamid Company, priority 1998, dated 2002).

Tests used:
Type in all cases: in vivo
[1] = tested on: M. incognita (Root Knot Nematode) larvae; assay: Evaluation of test compounds against M. incognita larvae in microtiter plate wells (movement score); conditions: larvae scored for movement after 20-24 hours; note: key: A score of '9' indicates inactive worms with a straight, sticklike morphology; A score of '8' indicates inactive worms with a limp, curled or curved morphology; A score of '7' indicates dead/paralyzed worms after 72 hours
Procedure: Evaluation of Test Compounds Against M. incognita (Root Knot Nematode)
Newly emerged M. incognita larvae are suspended in S Medium (buffered salt solution) to a concentration of 50-65 worms per 50 μl. 50 μl of the worm suspension are pipetted into microtiter plate wells containing the test compounds. The plates are then covered with plactic plate sealers to reduce loss of volume by evaporation. After 20-24 hours of incubation, the larvae are scored for movement. Wells containing obviously dead/paralyzed larvae are scored as positive. […] A score of “7” indicates dead/paralyzed worms after […].

[2] = tested on: C. elegans (Bristol strain); assay: Evaluation of test compounds against C. elegans (motility, 96-well plate); parameters: key: 9=complete kill in 4 hours; 8=complete kill in 24 hours; 7=markedly reduced motility in approximately 95% of worms in 24 hours; 0=normal motility, same as controls; conditions: motility at 4 and 24 hours
Procedure: Evaluation of Test Compounds Against C. elegans Cultures of C. elegans (Bristol strain from J. Lewis) are maintained on E. coli lawns on NG Agar Plates at 20° C. New cultures are established weekly. Nematodes for testing are washed from cultures using Na buffer. Compounds are dissolved in 80% acetone. The test material is micropipetted (25 μl) into a single well of a 96-well sterile tissue culture plate and the solvent allowed to evaporate. A freshly prepared volume (50 μl) of C. elegans in Na buffer is micropipetted into each treated well and several control wells per plate. Plates are incubated at 20° C. Observations for efficacy are made under a dissecting microscope at 4 and 24 hours post-immersion. Immediately prior to reading the plate, it is gently tapped to stimulate the movement of the worms. Activity is judged subjectively, but semi-quantitatively, based on the drug effects on motility of the adults and larvae.

[3] = tested on: Spodoptera eridania, 2nd instar larvae, southern armyworm (SAW); assay: Southern armyworm (SAW) leaf dip test; parameters: key: 0 = no effect; 1 = 10-25% kill; 2 = 26-35% kill; 3 = 36-45% kill; 4 = 46-55% kill; 5 = 56-65% kill; 6 = 66-75% kill; 7 = 76-85% kill; 8 = 86-99% kill; 9 = 100% kill
Procedure: (§1) Test solutions are prepared by dissolving the test compound in a 35% acetone in water mixture to give a concentration of 10,000 ppm. Subsequent dilutions are made with water as needed.
Spodoptera eridania, 2nd Instar Larvae, Southern Armyworm (SAW)
A Sieva lima bean leaf expanded to 7-8 cm in length is dipped in the test solution with agitation for 3 seconds and allowed to dry in a hood. The leaf is then placed in a 100×10 mm petri dish containing a damp filter paper on the bottom and ten 2nd instar caterpillars. At 5 days, observations are made of mortality, reduced feeding, or any interference with normal molting.

[4] = tested on: Diabrotica virgifera virgifera Leconte, 2nd instar western corn rootworm (WCR); assay: Western corn rootworm (WCR) soil test; parameters: key: 0 = no effect; 1 = 10-25% kill; 2 = 26-35% kill; 3 = 36-45% kill; 4 = 46-55% kill; 5 = 56-65% kill; 6 = 66-75% kill; 7 = 76-85% kill; 8 = 86-99% kill; 9 = 100% kill
Procedure: Test solutions are prepared by dissolving the test compound in a 35% acetone in water mixture to give a concentration of 10,000 ppm. Subsequent dilutions are made with water as needed. Diabrotica virgifera virgifera Leconte, 2nd Instar Western Corn Rootworm (WCR) One cc of fine talc is placed in a 30 mL wide-mouth screw-top glass jar. One mL of the appropriate acetone test solution is pipetted onto the talc so as to provide 1.25 mg of active ingredient per jar. The jars are set under a gentle air flow until the acetone is evaporated. The dried talc is loosened, 1 cc of millet seed is added to serve as food for the insects and 25 mL of moist soil is added to each jar. The jar is capped and the contents thoroughly mixed mechanically. Following this, ten 2nd instar rootworms are added to each jar and the jars are loosely capped to allow air exchange for the larvae. The treatments are held for 5 days when mortality counts are made. Missing larvae are presumed dead, since they decompose rapidly and cannot be found. The concentrations of active ingredient used in this test correspond approximately to 50 kg/ha. [table]

[5] = tested on: Tetranychus urticae (OP-resistant strain), 2-spotted spider mite (TSM); assay: 2-spotted spider mite (TSM) plant dip test; parameters: key: 0 = no effect; 1 = 10-25% kill; 2 = 26-35% kill; 3 = 36-45% kill; 4 = 46-55% kill; 5 = 56-65% kill; 6 = 66-75% kill; 7 = 76-85% kill; 8 = 86-99% kill; 9 = 100% kill; conditions: mortality after 2 days
Procedure: as §1
Tetranychus urticae (OP-resistant strain), 2-spotted Spider Mite (TSM)
Sieva lima bean plants with primary leaves expanded to 7-8 cm are selected and cut back to one plant per pot. A small piece is cut from an infested leaf taken from the main colony and placed on each leaf of the test plants. This is done about 2 hours before treatment to allow the mites to move over to the test plant to lay eggs. The size of the cut, infested leaf is varied to obtain about 100 mites per leaf. At the time of test treatment, the piece of leaf used to transfer the mites is removed and discarded. The newly-infested plants are dipped in the test solution for 3 seconds with agitation and set in the hood to dry. After 2 days, one leaf is removed and mortality counts are made.

[6] = tested on: Aphis gossypii, cotton aphid (CA); assay: Cotton aphid (CA) cotyledon dip test; parameters: key: 0 = no effect; 1 = 10-25% kill; 2 = 26-35% kill; 3 = 36-45% kill; 4 = 46-55% kill; 5 = 56-65% kill; 6 = 66-75% kill; 7 = 76-85% kill; 8 = 86-99% kill; 9 = 100% kill; conditions: mortality after 5 days
Procedure: Test solutions are prepared by dissolving the test compound in a 35% acetone in water mixture to give a concentration of 10,000 ppm. Subsequent dilutions are made with water as needed. Aphis gossypii, Cotton Aphid (CA) Cotton plants at the cotyledon stage are selected and cut back to one plant per pot. A heavily infested leaf is taken from the main colony and placed on top of each cotyledon. The aphids are allowed to transfer to the host plant overnight. At the time of test treatment, the leaf used to transfer the aphids is removed and discarded. The cotyledons are dipped in the test solution and allowed to dry. After 5 days, mortality counts are made. [table]

[7] = tested on: Spodoptera eridania, eggs-southern armyworm (SAW-Eggs); assay: Southern armyworm eggs (SAW-Eggs) treated diet test; parameters: key: 0 = no effect; 1 = 10-25% kill; 2 = 26-35% kill; 3 = 36-45% kill; 4 = 46-55% kill; 5 = 56-65% kill; 6 = 66-75% kill; 7 = 76-85% kill; 8 = 86-99% kill; 9 = 100% kill; conditions: mortality after 7 days
Procedure: (§2) Test solutions are prepared by dissolving the test compound in a 35% acetone in water mixture to give a concentration of 10,000 ppm. Subsequent dilutions are made with water as needed. Spodoptera eridania, Eggs-southern Armyworm and Diabrotica undecimpunctata howardi, Eggs-southern Corn Rootworm (SAW-Eggs) and (SCR-Eggs) Wells containing artificial diet are treated with the test solutions and dried. The appropriate insect eggs are then placed in the wells. The wells are covered with vented, adhesive, clear plastic covers. After 7 days, mortality counts are made. [table]

[8] = tested on: Diabrotica undecimpunctata howardi, eggs-southern corn rootworm (SCR-Eggs); assay: Southern corn rootworm eggs (SCR-Eggs) treated diet test; parameters: key: 0 = no effect; 1 = 10-25% kill; 2 = 26-35% kill; 3 = 36-45% kill; 4 = 46-55% kill; 5 = 56-65% kill; 6 = 66-75% kill; 7 = 76-85% kill; 8 = 86-99% kill; 9 = 100% kill; conditions: mortality after 7 days
Procedure: as §2

SMILES	M. incognita (150 ppm) score [1]	Rating Against C. elegans (150 ppm) [2]	SAW (300 ppm) rating [3]	WCR (50 ppm) rating [4]	TSM (300 ppm) rating [5]	CA (300 ppm) rating [6]	SAW Eggs (300 ppm) rating [7]	SCR Eggs (1000 ppm) rating [8]
O=[N+]([O-])CC(SCc1ccccc1)c1ccccc1 (stereo not drawn) [Example 10]	0	0	0	0	0	0	0	–
CCCCC(CC)COC(=O)CSC(C[N+](=O)[O-])c1ccccc1 (stereo not drawn) [Example 9]	0	0	0	4 (4 = 46-55% kill)	0	0	0	–
O=[N+]([O-])CC(SCc1ccccc1)c1ccc(F)cc1 (stereo not drawn) [Example 13]	0	8	0	0	0	7 (7 = 76-85% kill)	0	–
CC(C)CCCCCOC(=O)CSC(C[N+](=O)[O-])c1ccccc1 (stereo not drawn) [Example 8]	0	0	0	0	0	0	0	–
CCOC(=O)CSC(C[N+](=O)[O-])c1ccccc1 (stereo not drawn) [Example 6]	9	8	0	7 (7 = 76-85% kill)	0	0	0	–
COC(=O)CSC(C[N+](=O)[O-])c1ccccc1F (stereo not drawn) [Example 39]	9	9	4 (4 = 46-55% kill)	8 (8 = 86-99% kill)	0	0	–	0
CC(C)c1ccc(C(C[N+](=O)[O-])SCc2ccccc2)cc1 (stereo not drawn) [Example 36]	0	0	1 (1 = 10-25% kill)	0	0	0	–	7 (7 = 76-85% kill)
CCCCOC(=O)CSC(C[N+](=O)[O-])c1ccccc1Cl (stereo not drawn) [Example 90]	8	7	0	0	3 (3 = 36-45% kill)	0	–	0
CCOC(=O)CSC(C[N+](=O)[O-])c1ccccc1F (stereo not drawn) [Example 40]	9	8	3 (3 = 36-45% kill)	9 (9 = 100% kill)	0	0	–	0
CC(C)CCCCCOC(=O)CSC(C[N+](=O)[O-])c1ccccc1F (stereo not drawn) [Example 42]	0	0	0	6 (6 = 66-75% kill)	0	0	–	9 (9 = 100% kill)
O=C(O)CSC(C[N+](=O)[O-])c1ccccc1Cl (racemic) [Example 96]	9	9	0	0	0	0	–	0
O=[N+]([O-])CC(SCc1ccccc1)c1ccccc1F (stereo not drawn) [Example 44]	0	7	5 (5 = 56-65% kill)	4 (4 = 46-55% kill)	0	0	–	0
CCCCC(CC)COC(=O)CSC(C[N+](=O)[O-])c1ccccc1Cl (racemic) [Example 92]	0	0	0	5 (5 = 56-65% kill)	0	0	–	0
C=CCSC(C[N+](=O)[O-])c1ccccc1F (stereo not drawn) [Example 46]	9	7	1 (1 = 10-25% kill)	9 (9 = 100% kill)	0	0	–	0
CCCSC(C[N+](=O)[O-])c1ccc(C(C)C)cc1 (stereo not drawn) [Example 37]	0	0	0	0	0	0	–	0
